From patent US20190345138A1, “HETEROCYCLIC AMIDES AS KINASE INHIBITORS” (GlaxoSmithKline Intellectual Property Development Limited, priority 2016, published 2019)
“Also recorded” adds a separate entry of the source.

Assays:
[1] = system: A20 (B lymphoma); experiment: syngeneic subcutaneous tumor model A20; assay type: in vivo, mouse; settings: RIP1i = Example 78 40 mg/kg p.o. BID x up to 21 days
Protocol: (§1) The efficacy of RIP1 inhibition was tested in 12 different murine (6-8 week old) syngeneic subcutaenous tumor models. RIP1 inhibition was tested as a single agent in all models, with anti-PD1 combination arms added to the five of the final models.
(§2) T and C are the mean tumor volume of the treated and control groups, respectively, on a given day. • 2) Tumor and plasma collection at study end for further investigation.
(§3) The 12 syngenic cell lines were maintained in vitro with different medium (indicated in Table C) at 37° C. in an atmosphere of 5% CO2 in air. The tumor cells were routinely subcultured twice weekly. The cells in an exponential growth phase were harvested and counted for tumor inoculation.
(§4) Each mouse was inoculated subcutaneously with tumor cells in 0.1 mL of PBS for tumor development. The treatments were started when the mean tumor size reached approximately 80-120 mm^3 (around 100 mm^3).

[2] = system: CT26 (colon); experiment: syngeneic subcutaneous tumor model CT-26; assay type: in vivo, mouse; settings: RIP1i = Example 78 40 mg/kg p.o. BID x up to 21 days
Protocol: as §1, §2, §3, §4

[3] = system: EMT-6 (breast); experiment: syngeneic subcutaneous tumor model EMT-6; assay type: in vivo, mouse; settings: RIP1i = Example 78 40 mg/kg p.o. BID x up to 21 days
Protocol: as §1, §2, §3, §4

[4] = system: LL/2 (Lewis lung); experiment: syngeneic subcutaneous tumor model LL/2; assay type: in vivo, mouse; settings: RIP1i = Example 78 40 mg/kg p.o. BID x up to 21 days
Protocol: as §1, §2, §3, §4

[5] = system: Sharpin-deficient mice (cpdm); experiment: Sharpin-deficient mouse model of TNF-dependent dermatitis; assay type: in vivo; settings: food-based 100 or 10 mg/kg/day
Protocol: Sharpin-deficient mice (cpdm) develop a spontaneous and severe TNF- and RIPK1-dependent dermatitis and multi-organ immunopathology around 6-8 weeks of age (S. B. Berger et al., Journal of Immunology, 192(12):5476-5480, (2014)). Mice were dosed with RIP1 inhibitors at the time of weaning (3-4 weeks of age) prior to the development of dermatitis lesions or therapeutically after the development of dermatitis lesions (about 6 weeks of age) using a food-based dosing regimen, such that mice (4-7 mice per group) received on average 100 mg/kg/day or 10 mg/kg/day of RIP1 inhibitor in diet or control diet. […] The character of the lesion was categorized according the following, in order of increasing severity, 0=none, 1=excoriation only or one small punctuated crust (≤2 mm), 2=multiple, small punctuate crusts or coalescing crust (>2 mm), 3=erosion or ulceration. The regions were identified as: Region 1: the head cranial to the medial pinna attachment and/or lesions affecting the mandible cranial to the sternum, Region 2: inner and outer pinna, dorsal cervical region caudal to the medial pinna attachment, dorsal and ventral thorax, and thoracic limbs, Region 3: any region caudal to the ribcage. A score for the regions affected was categorized per the following: 0=none; 1=Region 2 or 3; 2=Region 2 and 3; 3=Region 1+/−other affected regions. […]

[6] = system: Renca (renal); experiment: syngeneic subcutaneous tumor model Renca; assay type: in vivo, mouse; settings: RIP1i = Example 78 40 mg/kg p.o. BID x up to 21 days
Protocol: as §1, §2, §3, §4

[7] = system: Pan02 (pancreatic); experiment: syngeneic subcutaneous tumor model Pan02; assay type: in vivo, mouse; settings: Pan02, PG21; RIP1i = Example 78 40 mg/kg p.o. BID, alone or with anti-PD1
Protocol: as §1, §2, §3, §4

[8] = system: RM-1(prostate); experiment: syngeneic subcutaneous tumor model RM-1; assay type: in vivo, mouse; settings: RIP1i = Example 78 40 mg/kg p.o. BID, alone or with anti-PD1
Protocol: as §1, §2, §3, §4

[9] = system: B16F10 (melanoma); experiment: syngeneic subcutaneous tumor model B16F10; assay type: in vivo, mouse; settings: RIP1i = Example 78 40 mg/kg p.o. BID x up to 21 days
Protocol: as §1, §2, §3, §4

[10] = system: H22 (hepatoma); experiment: syngeneic subcutaneous tumor model H-22; assay type: in vivo, mouse; settings: RIP1i = Example 78 40 mg/kg p.o. BID x up to 21 days
Protocol: as §1, §2, §3, §4

[11] = system: MBT2 (bladder); experiment: syngeneic subcutaneous tumor model MBT2; assay type: in vivo, mouse; settings: RIP1i = Example 78 40 mg/kg p.o. BID, alone or with anti-PD1
Protocol: as §1, §2, §3, §4

[12] = system: MC38 (colon); experiment: syngeneic subcutaneous tumor model MC38; assay type: in vivo, mouse; settings: RIP1i = Example 78 40 mg/kg p.o. BID, alone or with anti-PD1
Protocol: as §1, §2, §3, §4

[13] = system: Diet-induced obese, male mice C57Bl/6J; experiment: obesity, high fat diet-fed mice; assay type: in vivo, mouse
From the text: Inflammation is known to be a contributing factor in the pathogenesis of diabetes and obesity (Chen. et. al., International Journal of Endocrinology (2015)). We therefore explored the effect of blocking RIPK1 kinase activity on body weight in mice made obese by chronic feeding of a high fat diet (HFD). Diet-induced obese, male mice C57Bl/6J (Jackson Labs Stock#380050) arrived at 22 weeks of age, with average body weight of 40 g and acclimated for one week and maintained on HFD. Mice were then acclimated to oral gavage with water for 7 days before study start. Thereafter mice received RIPK 1 inhibitor (50 mg/kg, bid, n=9) or vehicle (bid, n=9) for 19 days. Food intake was measured twice weekly and body weight was measured daily throughout the study.

[14] = system: db/db mice; experiment: glucose homeostasis in db/db mice; assay type: in vivo, mouse; settings: 100 mg/kg/day in chow
From the text: We therefore investigated the ability of our small molecule RIPK1 inhibitor to improve glucose homeostasis in a diabetic animal model. Mice genetically deficient for the leptin receptor (db/db mice; Jackson Labs, BKS.Cg-Dock7m+/+Leprdb/J) are a widely used animal model of insulin resistance and diabetes. In our study, 4-week old male db/db mice were acclimated for a period of one week. At this point, when the mice were 5 weeks of age, the study was started. Mice were then divided into two group (n=10/group) and baseline measurements of non-fasted blood glucoses (using a glucometer) and body weight were taken. After baseline measurements, one group of mice was fed chow containing RIPK1 inhibitor (100 mg/kg/day, n=10) and the other remained on normal chow (n=10). Animals remained on these diets for 6 weeks. Additional measurements of non-fasted blood glucose and body weight were taken 2 and 4 weeks after study start. At week 8, mice were fasted overnight (16 hours) and fasted blood glucose and body weight were measured on the following day.

[15] = system: B16BL6 (melanoma); experiment: syngeneic subcutaneous tumor model B16BL6; assay type: in vivo, mouse; settings: RIP1i = Example 78 40 mg/kg p.o. BID, alone or with anti-PD1
Protocol: as §1, §2, §3, §4

Question: How did the “Mean tumor growth inhibition (TGI) at model termination” value (from here on “Mean tumor growth inhibition (TGI)”) [1] turn out when `N#Cc1cc(N2CCC(C(=O)N3N=CC[C@H]3c3cc(F)cc(F)c3)CC2)ncn1` [Example 78, (S)-6-(4-(5-(3,5-difluorophenyl)-4,5-dihydro-1H-pyrazole-1-carbonyl)piperidin-1-yl)pyrimidine-4-carbonitrile] was run?
Answer: Its value is 0.6%.

Question: What about the “Mean tumor growth inhibition (TGI)” value [2] of the same compound?
Answer: The value was 19%.

Question: What about the “Mean tumor growth inhibition (TGI)” value [3] of the same compound?
Answer: Its value is 21%.

Question: And the “Mean tumor growth inhibition (TGI)” value [4]?
Answer: Its value is 22%.

Question: And the “development of severe dermatitis” value ([5]; pre-dosing from weaning (3-4 weeks of age))?
Answer: The value was “complete protection from the development of severe dermatitis”.

Question: What about the established dermatitis ([5]; therapeutic dosing after development of lesions (about 6 weeks of age)) of the same compound?
Answer: The established dermatitis was “rescued established dermatitis”.

Question: What about the “Mean tumor growth inhibition (TGI)” value [6] of the same compound?
Answer: Its value is 19%.

Question: What about the “Mean tumor growth inhibition (TGI)” value [7] of the same compound?
Answer: Its value is “PG21: 46%”.

Question: And the “Mean tumor growth inhibition (TGI)” value [8]?
Answer: The value was −8%.

Question: And the “Mean tumor growth inhibition (TGI)” value [9]?
Answer: Its value is 20%.

Question: What about the “Mean tumor growth inhibition (TGI)” value [10] of the same compound?
Answer: Its value is 19%.

Question: And the “Mean tumor growth inhibition (TGI)” value [11]?
Answer: The value was −4%.

Question: What about the “Mean tumor growth inhibition (TGI)” value [12] of the same compound?
Answer: The value was −16%.

Question: What about the body weight ([13]; 50 mg/kg bid PO for 19 days, versus vehicle) of the same compound?
Answer: The body weight was “did not gain weight”.

Question: And the food intake ([13]; 50 mg/kg bid PO, day 2 and day 5, versus vehicle)?
Answer: The food intake was “initially reduced their food intake”.

Question: What about the fasted blood glucose ([14]; week 8, fasted overnight (16 hours), versus normal chow) of the same compound?
Answer: Its fasted blood glucose is “improves fasted blood glucose; also recorded: significantly lower”.

Question: And the “non-fasted (fed) blood glucose” value ([14]; weeks 2 and 4, versus normal chow)?
Answer: Its value is “improves fed blood glucose over time; also recorded: Reduced non-fasted blood glucose at weeks 2 and 4”.

Question: What about the “Mean tumor growth inhibition (TGI)” value [15] of the same compound?
Answer: The value was 16%.
